Data published in patent US20250040543A1, “Preservative Composition” (ARXADA AG, priority 2021, published 2025).

Tests used:
Candida albicans = test: MIC and Synergy Index (Kull) of two-component compositions; assay type: cell-based
Description: A wide range of concentrations were tested against Pseudomonas aeruginosa, Staphylococcus aureus, Escherichia coli, and Candda albicans.
The lowest concentration of each mixture or single compound which prevents an observable level of growth was determined to be the minimum inhibitory concentration (MIC) value.
Serial dilutions of each mixture or single compound were prepared. Micro-organisms were inoculated into media: Nutrient Broth (bacteria) or Malt Extract Broth (yeast). The final concentrations of micro-organisms in media was approximately 10^5-6 CFU/ml. The inoculated media was introduced to each of the serial dilutions at a 1:1 ratio, and incubated at 30±1° C. for 24-48 hours.
The MICs for each mixture was compared with the MIC of each single compound alone.
In this study the end point is measured by the MIC.

C. albicans = test: Preservation efficacy test in sterile distilled water, drop plate; assay type: cell-based, Candida albicans; settings: 7 days, pH 7, Potassium Sorbate 0 ppm
Description: Yeast strains were harvested and prepared in diluent (sterile distilled water) to obtain a final concentration of 1.0×10^5 to 1.0×10^6 cfu/ml.
Preservation efficacy testing started at Day 0 (t=0). Each sample was inoculated at t=0 with a known concentration of micro-organism. Each inoculated sample was then mixed until a homogenous mixture was obtained. Inoculated samples were stored in the dark at 22.5±2.5° C. throughout the test period.
At the specified contact time of 7 days (t=7), test samples were deactivated by adding a 0.1 ml aliquot of the test sample to 0.9 ml of an appropriate neutralising broth. The solution was left for 15 minutes. Subsequent dilutions were prepared by serial dilution of 0.1 ml into 0.9 ml of neutralising broth. Bacteria were serially diluted to 10^−4, Fungi were serially diluted to 10^−3.
Each serial dilution was thoroughly mixed and 25 μl drops were aliquoted onto the surface of pre-prepared agar plates. Plates were prepared in sextupicate for each sample dilution.
The agar plates were allowed to dry, then inverted and incubated under conditions appropriate for the test microorganisms.
CFU/ml was calculated taking into account dilution factors. Colonies from the incubated plates were enumerated using the lower count limit of <10 CFU/ml and the upper count limit of >330 CFU/ml.
The lower and upper limits for drop plating were only employed on the highest and lowest dilution factor plates.
The test organisms were prepared and the method was performed according to the protocol of Example 1.

[1] = system: Aspergillus brasiliensis ATCC 16404; test: as above; assay type: cell-based; settings: 7 days
Description: (§1) In the following example, the following test organisms were used: • Pseudomonas aeruginosa ATCC 9027 • Aspergillus brasiliensis ATCC 16404 [table] Mould strain spores were harvested (sterile distilled water+0.05% polysorbate 80) and treated to remove fungal hyphae. Mould strain spores were prepared in diluent (sterile distilled water) to obtain a final concentration of 1.0×10^5 to 1.0×10^5 cfu/ml. [table] […] Each sample was inoculated at t=0 with a known concentration of micro-organism. Each inoculated sample was then mixed until a homogenous mixture was obtained. […] The solution was left for 15 minutes. Subsequent dilutions were prepared by serial dilution of 0.1 ml into 0.9 ml of neutralising broth. Bacteria were serially diluted to 10^−4, Fungi were serially diluted to 10^−3. Each serial dilution was thoroughly mixed and 25 μl drops were aliquoted onto the surface of pre-prepared agar plates. Plates were prepared in sextupicate for each sample dilution. The agar plates were allowed to dry, then inverted and incubated under conditions appropriate for the test microorganisms. CFU/ml was calculated taking into account dilution factors. […] The lower and upper limits for drop plating were only employed on the highest and lowest dilution factor plates.

[2] = system: Pseudomonas aeruginosa ATCC 9027; test: as above; assay type: cell-based; settings: 7 days
Description: as §1, with “[table] Bacteria” for “[table] Mould strain spores”, “harvested” for “harvested (sterile distilled water+0.05% polysorbate 80)”, “and” for “and treated to remove fungal hyphae. Mould strain spores were”, “of 1.0×10^6” for “of 1.0×10^5”, “to 5.0×10^6” for “to 1.0×10^5”

[3] = pH 7, Butyl Levulinate 500 ppm, Potassium Sorbate 0 ppm
[4] = pH 7, Butyl Levulinate 1000 ppm, Potassium Sorbate 0 ppm
[5] = pH 7, Butyl Levulinate 1500 ppm, Potassium Sorbate 0 ppm
[6] = pH 7, Butyl Levulinate 1500 ppm, Sodium Benzoate 0 ppm
[7] = pH 7, Butyl Levulinate 2000 ppm, Potassium Sorbate 0 ppm
[8] = pH 7, Butyl Levulinate 2000 ppm, Sodium Benzoate 0 ppm
[9] = pH 7, Butyl Levulinate 2500 ppm, Potassium Sorbate 0 ppm
[10] = pH 7, Butyl Levulinate 2500 ppm, Sodium Benzoate 0 ppm
[11] = pH 8, Butyl Levulinate 500 ppm, Sodium Benzoate 0 ppm
[12] = pH 8, Butyl Levulinate 1000 ppm, Sodium Benzoate 0 ppm
[13] = pH 8, Butyl Levulinate 1500 ppm, Sodium Benzoate 0 ppm
[14] = pH 8, Butyl Levulinate 2000 ppm, Sodium Benzoate 0 ppm
[15] = pH 8, Butyl Levulinate 2500 ppm, Sodium Benzoate 0 ppm

CCCCOC(=O)CCC(C)=O [Butyl Levulinate, butyl levulinate]
MIC (Candida albicans; Candida albicans, butyl levulinate alone, or its concentration in the mixture with Sodium benzoate, read-out: MIC (ppm) to inhibit growth: Butyl levulinate): 6250 µg/mL | MIC (ppm) to inhibit growth: Butyl levulinate (Candida albicans; butyl levulinate alone, or its concentration in the mixture with BIT): 6250 ppm | MIC (ppm) to inhibit growth: Butyl levulinate (Candida albicans; butyl levulinate alone, or its concentration in the mixture with DHA): 6250 ppm | MIC (ppm) to inhibit growth: Butyl levulinate (Candida albicans; butyl levulinate alone, or its concentration in the mixture with HPNO): 6250 ppm | MIC (ppm) to inhibit growth: Butyl levulinate (Candida albicans; butyl levulinate alone, or its concentration in the mixture with PHMB): 6250 ppm | MIC (ppm) to inhibit growth: Butyl levulinate (Candida albicans; butyl levulinate alone, or its concentration in the mixture with Potassium Sorbate): 6250 ppm | MIC (ppm) to inhibit growth: Butyl levulinate (Candida albicans; butyl levulinate alone, or its concentration in the mixture with Sodium pyrithione): 6250 ppm | Log reduction (C. albicans; Butyl Levulinate 500 ppm): 0.11 | Log reduction (C. albicans; Butyl Levulinate 1000 ppm): 0.22 | Log reduction (C. albicans; Butyl Levulinate 1500 ppm): 0.11 | Log reduction (C. albicans; Butyl Levulinate 2000 ppm): −0.11 | Log reduction (C. albicans; Butyl Levulinate 2500 ppm): 0.18 | Log reduction ([1]; pH 7, Butyl Levulinate 500 ppm, IPBC 0 ppm): 0.61 | Log reduction [1, 3]: 0.10 | Log reduction ([1]; pH 7, Butyl Levulinate 500 ppm, Sodium Benzoate 0 ppm): 1.90 | Log reduction ([1]; pH 7, Butyl Levulinate 1000 ppm, IPBC 0 ppm): 0.60 | Log reduction [1, 4]: 0.10 | Log reduction ([1]; pH 7, Butyl Levulinate 1000 ppm, Sodium Benzoate 0 ppm): 1.82 | Log reduction ([1]; pH 7, Butyl Levulinate 1500 ppm, IPBC 0 ppm): 0.74 | Log reduction [1, 5]: 0.31 | Log reduction [1, 6]: 1.85 | Log reduction ([1]; pH 7, Butyl Levulinate 2000 ppm, IPBC 0 ppm): 0.70 | Log reduction [1, 7]: −0.01 | Log reduction [1, 8]: 2.01 | Log reduction ([1]; pH 7, Butyl Levulinate 2500 ppm, IPBC 0 ppm): 0.72 | Log reduction [1, 9]: 0.18 | Log reduction [1, 10]: 1.80 | Log reduction [1, 11]: 0.64 | Log reduction [1, 12]: 0.36 | Log reduction [1, 13]: 0.36 | Log reduction [1, 14]: 0.38 | Log reduction [1, 15]: 0.33 | Log reduction [2, 3]: <0.03 | Log reduction [2, 4]: <0.03 | Log reduction [2, 5]: <0.03 | Log reduction [2, 6]: <0.38 | Log reduction [2, 7]: <0.03 | Log reduction [2, 8]: <0.38 | Log reduction [2, 9]: <0.03 | Log reduction [2, 10]: <0.38 | Log reduction ([2]; pH 8, Butyl Levulinate 500 ppm, Potassium Sorbate 0 ppm): <0.33 | Log reduction [2, 11]: <0.05 | Log reduction ([2]; pH 8, Butyl Levulinate 1000 ppm, Potassium Sorbate 0 ppm): <0.33 | Log reduction [2, 12]: <0.05 | Log reduction ([2]; pH 8, Butyl Levulinate 1500 ppm, Potassium Sorbate 0 ppm): <0.33 | Log reduction [2, 13]: <0.05 | Log reduction ([2]; pH 8, Butyl Levulinate 2000 ppm, Potassium Sorbate 0 ppm): <0.33 | Log reduction [2, 14]: <0.05 | Log reduction ([2]; pH 8, Butyl Levulinate 2500 ppm, Potassium Sorbate 0 ppm): <0.33 | Log reduction [2, 15]: <0.05
